# In PubChem BioAssay AID328 (DTP/NCI, 2004):
# Where “and” joins values, the source holds several entries; their conditions need not be identical. Identical values can stand only once. Toxic doses and inconclusive results are not listed.
# Tested on: BDF1 mice, P388 leukemia ip, median survival T/C
# Assay: NCI In Vivo Anticancer Drug Screen. Data for tumor model P388 Leukemia (intraperitoneal) in B6D2F1 (BDF1) mice
# Settings: endpoint: median survival time, higher = longer survival
# Description: The antitumor activity of compounds was measured in mice bearing transplantable tumors. Survival or tumor size were measured and the results are expressed as the measurement made in the treated group (T) divided by the measurement made in the vehicle treated control group (C). The tumor model used in this assay is P388 Leukemia (intraperitoneal) in B6D2F1 (BDF1) mice
# [1] = dose: 25.0 mg/kg/injection, schedule: Q04DX003 (ip), vehicle: saline with Tween-80
# [2] = dose: 200.0 mg/kg/injection, schedule: Q04DX003 (ip), vehicle: saline with Tween-80
# [3] = dose: 100.0 mg/kg/injection, schedule: Q04DX003 (ip), vehicle: saline with Tween-80
# [4] = dose: 50.0 mg/kg/injection, schedule: Q01DX009 (ip), vehicle: saline with Tween-80
# [5] = dose: 100.0 mg/kg/injection, schedule: Q01DX009 (ip), vehicle: saline with Tween-80
# [6] = dose: 25.0 mg/kg/injection, schedule: Q01DX009 (ip), vehicle: saline with Tween-80
smiles,measurement,setting,value
Cc1cc(C)c(-c2cc(O)c(C)cc2O)c(C)c1,T/C,"dose: 0.39 mg/kg/injection, schedule: Q04DX003 (ip), vehicle: other",103 % of control
same,T/C,"dose: 0.78 mg/kg/injection, schedule: Q04DX003 (ip), vehicle: other",108 % of control
same,T/C,"dose: 1.56 mg/kg/injection, schedule: Q04DX003 (ip), vehicle: other",104 % of control
same,T/C,"dose: 3.12 mg/kg/injection, schedule: Q04DX003 (ip), vehicle: other",90 % of control and 108 % of control
same,T/C,"dose: 6.25 mg/kg/injection, schedule: Q04DX003 (ip), vehicle: other",88 % of control and 100 % of control
same,T/C,"dose: 12.5 mg/kg/injection, schedule: Q01DX009 (ip), vehicle: other",97 % of control
same,T/C,"dose: 12.5 mg/kg/injection, schedule: Q04DX003 (ip), vehicle: other",108 % of control and 109 % of control
same,T/C,"dose: 25.0 mg/kg/injection, schedule: Q01DX009 (ip), vehicle: other",118 % of control
same,T/C,"dose: 25.0 mg/kg/injection, schedule: Q04DX003 (ip), vehicle: other",92 % of control
same,T/C,[1],100 % of control
same,T/C,"dose: 65.0 mg/kg/injection, schedule: Q04DX003 (ip), vehicle: Klucel (hydroxypropylcellulose) (HPC)",105 % of control
same,T/C,"dose: 100.0 mg/kg/injection, schedule: Q01DX009 (ip), vehicle: other",102 % of control
same,T/C,"dose: 100.0 mg/kg/injection, schedule: Q04DX003 (ip), vehicle: Klucel (hydroxypropylcellulose) (HPC)",114 % of control
same,T/C,"dose: 150.0 mg/kg/injection, schedule: Q04DX003 (ip), vehicle: Klucel (hydroxypropylcellulose) (HPC)",109 % of control
same,T/C,[2],93 % of control
Oc1ccc(C2N(c3ccccc3)CCN2c2ccccc2)cc1,T/C,[3],110 % of control
same,T/C,[2],86 % of control
CCOC(=O)/C=C/C(C(=O)OCC)C(=O)OCC,T/C,"dose: 75.0 mg/kg/injection, schedule: Q04DX003 (ip), vehicle: saline with Tween-80",95 % of control
same,T/C,"dose: 150.0 mg/kg/injection, schedule: Q04DX003 (ip), vehicle: saline with Tween-80",120 % of control
C1=C(c2ccccc2)C(c2ccccc2)=C(c2ccccc2)C(c2ccccc2)C(c2ccccc2)=N1 (centres undefined),T/C,[4],100 % of control
same,T/C,[5],92 % of control
same,T/C,"dose: 200.0 mg/kg/injection, schedule: Q01DX009 (ip), vehicle: saline with Tween-80",106 % of control
c1ccc(NNc2c3ccccc3nc3ccccc23)cc1,T/C,[4],102 % of control
same,T/C,[5],102 % of control
NC(=O)CC1=NCCc2ccccc21,T/C,"dose: 50.0 mg/kg/injection, schedule: Q01DX009 (ip), vehicle: saline",95 % of control
same,T/C,"dose: 50.0 mg/kg/injection, schedule: Q04DX003 (ip), vehicle: saline",100 % of control
same,T/C,"dose: 100.0 mg/kg/injection, schedule: Q01DX009 (ip), vehicle: saline",91 % of control
same,T/C,"dose: 100.0 mg/kg/injection, schedule: Q04DX003 (ip), vehicle: saline",100 % of control
same,T/C,"dose: 200.0 mg/kg/injection, schedule: Q01DX009 (ip), vehicle: saline",91 % of control
same,T/C,"dose: 200.0 mg/kg/injection, schedule: Q04DX003 (ip), vehicle: saline",113 % of control
NC(=S)N/N=C\c1c[nH]c2nccnc12,T/C,"dose: 25.0 mg/kg/injection, schedule: Q01DX009 (ip), vehicle: water",106 % of control
same,T/C,"dose: 50.0 mg/kg/injection, schedule: Q01DX009 (ip), vehicle: water",92 % of control
same,T/C,"dose: 100.0 mg/kg/injection, schedule: Q01DX009 (ip), vehicle: water",100 % of control
same,T/C,"dose: 400.0 mg/kg/injection, schedule: Q01DX009 (ip), vehicle: water",86 % of control
c1cc(CC2CO2)c2c(c1CC1CO1)OCCOCCOCCOCCO2 (centres undefined),T/C,"dose: 15.0 mg/kg/injection, schedule: Q01DX009 (ip), vehicle: saline + alcohol",100 % of control
same,T/C,"dose: 30.0 mg/kg/injection, schedule: Q01DX009 (ip), vehicle: saline + alcohol",106 % of control
same,T/C,"dose: 60.0 mg/kg/injection, schedule: Q01DX009 (ip), vehicle: saline + alcohol",109 % of control
same,T/C,"dose: 120.0 mg/kg/injection, schedule: Q01DX009 (ip), vehicle: saline + alcohol",111 % of control
O=[N+]([O-])c1cccc2c1ccc[n+]2Cc1ccccc1,T/C,"dose: 12.5 mg/kg/injection, schedule: Q01DX009 (ip), vehicle: saline with Tween-80",112 % of control
same,T/C,[6],115 % of control
same,T/C,[4],122 % of control
NC(=O)NC1C(c2ccccc2)=NOC1C(N)=O (centres undefined),T/C,"dose: 100.0 mg/kg/injection, schedule: Q01DX009 (ip), vehicle: Klucel (hydroxypropylcellulose) (HPC)",105 % of control
same,T/C,"dose: 200.0 mg/kg/injection, schedule: Q01DX009 (ip), vehicle: Klucel (hydroxypropylcellulose) (HPC)",100 % of control
NNc1ncnc2c1ccn2C1OC(CO)C(O)C1O (centres undefined),T/C,[6],150 % of control
same,T/C,[1],104 % of control
same,T/C,"dose: 37.5 mg/kg/injection, schedule: Q01DX009 (ip), vehicle: saline with Tween-80",155 % of control
same,T/C,[4],100 % of control
same,T/C,"dose: 50.0 mg/kg/injection, schedule: Q04DX003 (ip), vehicle: saline with Tween-80",108 % of control
same,T/C,[3],108 % of control
